Reference: patent publication US9221900B2, “Methods for identifying safe and functional humanized antibodies” (AC IMMUNE S.A., priority 2010, dated 2015)

Columns and labels:
microglia = test: Confocal imaging of microglial uptake of Aβ1-42 oligomers; format: cell-based, rat; conditions: for Aβ1-42 oligomer internalization into microglia, rank order: primary cortical microglia
Description: Aβ1-42 oligomers are shown in red, and blue is DAPI staining of DNA to show the microglia itself (A). An apical-to-distal slice was obtained from a three-dimensional image rendered from Z-stacks. Confocal imaging was performed on mixed cortical cells labeled for Aβ (red) and stained with DAPI (blue) as described in the Example Section under Materials and Methods. Microglia were identified and scanned for the maximum fluorescence intensity through a series of confocal stacks representing intracellular locations (B), and the total area of fluorescent signal above a minimum threshold was quantified (C). Each mark on the graph represents the total area of Aβ stained within a single cell. A minimum of 20 cells were analyzed for each treatment condition. Data were compared using one-way ANOVA followed by Tukey post-hoc multiple comparison. Means (±SEM) are shown. […] Red is Iba1 staining, green is HyLite Fluor-488-labeled Aβ1 42, and blue is DAPI staining. […] Statistical analysis was done using one-way ANOVA followed by Tukey post-hoc multiple comparison.
Cells were grown on a glass coverslips. Following treatment, cells were quickly washed with PBS and then fixed with 4% paraformaldehyde for 20 min. After thorough washes, cells were immersed in 100% methanol for 10 min at −20° C. They were then washed again and incubated in a blocking solution, PBS containing 10% normal goat serum for 1 h at room temperature. After an overnight incubation with the primary antibody, cells were washed and incubated for 2 h with the secondary antibody, then washed and mounted on glass slides using ProLong Gold antifade reagent (Invitrogen). Epifluorescence and confocal images were acquired on a LSM 700 inverted microscope from Zeiss, using a 63× lens. Fluorescence intensity was measured in cell bodies delineated by saturated epifluorescence pictures. Z-stacks were rendered into a three-dimensional image using ImageJ 1.42 (National Institutes of Health, freeware) from which an apical to distal slice containing the labeled proteins was obtained. Cells treated with HyLite Fluor-488-tagged Aβ1-42 were treated in the same way except no primary or secondary antibodies were used to label for Aβ1-42.

FcγRIIIa-V158 = target: T1, FcγRIIIa-V158 (Homo sapiens, UniProt P08637, F176V); test: FcγR binding ELISA, FcγRIIIa-V158; conditions: cross-linked IgG mAb
T1 construct: fusion proteins containing the extracellular domain of the receptor γ-chain
Description: The ability of these different monoclonal antibody backbones to internalize Aβ1-42 oligomers into microglia was then compared using confocal imaging on Aβ1-42 oligomer treated primary cortical microglia. […] To verify that microglia are indeed the cells taking up Aβ1-42 complexed to monoclonal antibodies, the study was repeated using HiLyte Fluor-488 tagged Aβ1-42 and co-stained for the microglial marker Iba1.
(§1) The binding of test antibodies to a panel of human Fcγ receptors (FcγRs) was measured using enzyme-linked immunosorbent assay (ELISA). Human FcγRs (Genentech, Inc., CA) are fusion proteins containing the extracellular domain of the receptor γ-chain with a Gly/6xHis/glutathione S transferase (GST) polypeptide tag at the C terminus. A monoclonal antibody with human IgG1 framework was used as the positive control (IgG1 control) in this experiment. Plates were coated with a mouse monoclonal anti GST antibody (Genentech, Inc.) in a 0.05 M sodium carbonate buffer (pH 9.6) overnight at 4° C. After blocking with an assay buffer containing phosphate buffered saline (PBS), 0.5% BSA, and 0.05% Tween-20, the plates were incubated with FcγRs at room temperature for 1 h. Human FcγRs were immobilized to the plate via interaction with the anti-GST coating. […] Diluted samples were applied as monomeric forms for the high affinity receptor (FcγRIa), or multimeric forms for the low affinity receptors (FcγRIIa, FcγRIIb, and FcγRIIIa). […] The antibodies bound to the FcγRs were detected with horseradish peroxidase (HRP)-conjugated F(ab′)2 fragment of goat anti human F(ab′)2 (Jackson ImmunoResearch Laboratories; West Grove, Pa.). […] The reaction was terminated with 1 M H3PO4, and absorbance at 450 nm with reference at 650 nm was measured on a plate reader (Molecular Devices, Sunnyvale, Calif.). Binding curves were generated by plotting the mean absorbance values from duplicates of sample dilutions against the respective sample absorbance.

[1] = system: human Fcγ receptors (FcγRIa, FcγRIIa, FcγRIIb, FcγRIIIa); test: FcγR binding ELISA, panel of human Fcγ receptors; conditions: cross-linked antibody
Description: FIG. 10 provides graphs and immunocytochemical images corresponding to the experiments described in Example 6.5. […] These findings are consistent with published data for human IgG4 antibodies (Gessner et al., 1998) and IgG1 antibodies carrying the D265A mutation (Shields et al., 2001).
as §1, with “FcγRIIIa). The multimeric forms of test antibodies were generated by cross linking F(ab′)2 fragment of goat anti human κ-chain (MP Biomedicals, Solon, Ohio), with test monoclonal antibody at an approximate molar ratio of 3:1. The plates were incubated with FcγRs at room temperature for 2 h.” for “FcγRIIIa).”

p38MAPK = test: Phospho-p38MAPK ELISA; format: cell-based, rat; conditions: 10 μM Aβ1-42 oligomers for 30 min, 100 μg/mL antibody
Description: FIG. 5 provides graphs and immunocytochemical images corresponding to the experiments described in Example 6.6. […] An IgG1 monoclonal antibody not binding to Aβ was used as control. The activity of p38MAP K was measured by a phospho-specific ELISA as described in Methods (A). The mean (±SEM) of 4 independent experiments is shown. Statistical analysis was done using one-way ANOVA followed by Tukey post-hoc multiple comparison. Activation of p38MAPK with Aβ1-42 oligomers complexed with monoclonal antibody was specific to microglia (B). Cells were treated as described above and then stained for phospho-p38MAP K (green), with Iba1 (red), and with DAPI (blue). […] Pure microglia from CX3CR1-GFP mice were used to verify microglia-specific p38 activity (C). […] A cytotoxicity assay using the MTT readout was performed after 24 h. The mean (±SEM) of 4 experiments is shown. […]
Rat cortical cultures were seeded onto poly-L-lysine coated 6-well cell-culture plates (Costar, Cambridge, Mass., USA) and used at DIV 5. […] Protein concentration was determined by the BCA assay (Pierce, Rockford, Ill., USA). For semi-quantitative measure of p38MAPK activation, a rat phospho-p38MAPK colorimetric ELISA kit was used (Cell Signaling Technology, Beverly, Mass., USA), following the manufacturer's instructions. Plates were read on a spectrophotometric microplate reader (Tecan) at a […]. […]

T1 sequence (P08637 17-208 F176V): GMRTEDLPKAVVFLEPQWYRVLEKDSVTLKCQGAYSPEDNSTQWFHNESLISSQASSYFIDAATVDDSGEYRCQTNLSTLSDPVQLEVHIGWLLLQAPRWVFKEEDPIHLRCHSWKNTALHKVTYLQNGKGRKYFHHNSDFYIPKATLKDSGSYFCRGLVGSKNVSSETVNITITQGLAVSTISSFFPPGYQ

Question: For “MABT-IgG1: same antigen binding sequences as MABT on human IgG1 wild-type backbone with full FcγR-binding capacity”, which “microglial morphology and Iba1 staining” value (microglia; Aβ1-42 in combination with antibody) is on record?
Answer: more condensed nuclei and brighter Iba1 staining

Question: And the “Aβ1-42 oligomer internalization into microglia, rank order” value (microglia)?
Answer: MABT-IgG1>MABT>MABT-IgG1-D265A

Question: And the “binding to FcγRIIIa-V158, hierarchy” value (FcγRIIIa-V158)?
Answer: MABT-IgG>MABT>MABT-IgG1-D265A

Question: And the “binding to FcγRs” value [1]?
Answer: bound to all FcRγ receptors with activities similar to the positive non-Aβ-binding IgG1 control

Question: What about the “Aβ1-42 oligomer-induced p38MAPK activity” value (p38MAPK) of the same substance?
Answer: increased the Aβ1-42 oligomer-induced p38MAPK activity even further

Question: With “MABT: humanized anti-Aβ monoclonal antibody of IgG4 isotype, affinity matured and humanized form of mouse mMABT” as the substance, how does the “uptake of Aβ1-42 oligomers into microglia” value (microglia; mixed neuronal cultures, apparent from 30 minutes) read?
Answer: mediated rapid uptake of Aβ1-42 oligomers into cellular profiles likely to be microglia

Question: And the “Aβ1-42 oligomer internalization into microglia, rank order” value (microglia)?
Answer: MABT-IgG1>MABT>MABT-IgG1-D265A

Question: What about the “binding to FcγRIIIa-V158, hierarchy” value (FcγRIIIa-V158) of the same substance?
Answer: MABT-IgG>MABT>MABT-IgG1-D265A

Question: What about the “binding to FcγRs” value [1] of the same substance?
Answer: substantially reduced binding to all the FcγRs

Question: And the “Aβ1-42 oligomer-induced p38MAPK activity” value (p38MAPK)?
Answer: did not reduce the Aβ1-42 oligomer-induced p38MAPK activity, but rather showed a trend towards higher activity
